# What was measured:
# Assay type in all cases: cell-based
# Conditions in all cases: 100 nM for 48 hr versus DMSO
# [1] = tested on: HPAF-II cells; assay: expression of DNA repair genes by qRT-PCR, HPAF-II cells
# Procedure: (§1) Tumors were homogenised in RLT buffer using a polytron homogenizer. Total RNA was isolated using RNAeasy kit (Qiagen, Germany) according to manufacturer's protocol. For qPT-PCR, RNA was reverse transcribed with iScript reverse transcriptase (BioRAD, Hercules, Calif., USA). Real time quantitative PCR (qPCR) was performed using SsoFast EvaGreen assay Supermix from BioRad (Hercules, Calif., USA). EPN1 and ACTB were used as housekeeping genes.
# (§2) Inhibition of Wnt signalling reduces expression of DNA repair genes: HPAF-II, AsPC-1 or PaTu899S cells were treated with either DMSO or 100 nM compound of Formula (I) for 48 hr. The expression of the indicated genes was measured by qRT-PCR. FIGS. 14-16 illustrates the results.
# [2] = tested on: PaTu899S cells; assay: expression of DNA repair genes by qRT-PCR, PaTu899S cells
# Procedure: as §1, §2
# [3] = tested on: AsPC-1 cells; assay: expression of DNA repair genes by qRT-PCR, AsPC-1 cells
# Procedure: as §1, §2
smiles,measurement,setting,value
"Cn1c(=O)c2c(ncn2CC(=O)Nc2ccc(-c3ccccc3)nn2)n(C)c1=O [Ex 1, 2-(1,3-dimethyl-2,6-dioxo-2,3-dihydro-1H-purin-7 (6H)-yl)-N-(6-phenylpyridazin-3-yl)acetamide]","expression of DNA repair genes BRCA1, BRCA2, FANCD2, FANCG, RAD51 and XRCC3",[1],inhibited the expression of DNA repair genes
same,"expression of DNA repair genes BRCA1, BRCA2, FANCD2, FANCG, RAD51 and XRCC3",[2],inhibited the expression of DNA repair genes
same,"expression of DNA repair genes BRCA1, BRCA2, FANCD2, FANCG, RAD51 and XRCC3",[3],inhibited the expression of DNA repair genes

# Source: patent US20230076733A1, “Combination Therapy” (AGENCY FOR SCIENCE, TECHNOLOGY AND RESEARCH, priority 2020, published 2023)
